From patent US20090253789A1, “Preventive/Remedy for Arteriosclerotic Disease and Method of Evaluating Therapeutic Procedure” (Takeda Pharmaceutical Company Limited, priority 2006, published 2009)

How the values were obtained:
atherosclerotic lesion [1] = conditions: pre-clinical tests; accompanied with reduction in plasma cholesterol level; cited from earlier work
[2] = clinical test; cited from earlier work
atherosclerotic lesion [3] = assay: Anti-atherosclerotic activity test in WHHL rabbit: cholesterol ester content of thoracic aorta; format: in vivo
Procedure: (§1) Using 7-month-old WHHL rabbits, the compound X (3, 10 mg/kg/day) was orally administered once a day for 12 weeks and influence on atherosclerosis was examined. Before drug administration, aortic atherosclerosis was tested by intravascular ultrasound (IVUS), and WHHL rabbits were grouped based on the aortic atherosclerosis, plasma cholesterol level and sex.
(§2) Before initiation of administration, and 1, 2, 4, 6, 8, 10, 12 weeks from administration, blood samples were collected, a plasma total cholesterol level of each sample was measured using a biochemical automatic analysis apparatus and a plasma total cholesterol exposure amount during the administration period was obtained by a trapezoid formula. After administration, the thoracic aorta was removed, and a cholesterol ester content as an index of atherosclerosis was measured.

ACAT = biological target: T1, ACAT (Oryctolagus cuniculus, UniProt A0A5F9CPP4); assay: Atherosclerotic lesion ACAT enzyme inhibition test (3-day oral administration, lesion homogenate, correction markers); format: in vivo, WHHL rabbit
T1 construct: to obtain a homogenate, which was used as an “atherosclerotic lesion sample” for a biochemical measurement; from tissue; host or cells: aortic atherosclerotic lesion tissue homogenate of WHHL rabbits dosed orally for 3 days
T1 sequence (A0A5F9CPP4 1-555): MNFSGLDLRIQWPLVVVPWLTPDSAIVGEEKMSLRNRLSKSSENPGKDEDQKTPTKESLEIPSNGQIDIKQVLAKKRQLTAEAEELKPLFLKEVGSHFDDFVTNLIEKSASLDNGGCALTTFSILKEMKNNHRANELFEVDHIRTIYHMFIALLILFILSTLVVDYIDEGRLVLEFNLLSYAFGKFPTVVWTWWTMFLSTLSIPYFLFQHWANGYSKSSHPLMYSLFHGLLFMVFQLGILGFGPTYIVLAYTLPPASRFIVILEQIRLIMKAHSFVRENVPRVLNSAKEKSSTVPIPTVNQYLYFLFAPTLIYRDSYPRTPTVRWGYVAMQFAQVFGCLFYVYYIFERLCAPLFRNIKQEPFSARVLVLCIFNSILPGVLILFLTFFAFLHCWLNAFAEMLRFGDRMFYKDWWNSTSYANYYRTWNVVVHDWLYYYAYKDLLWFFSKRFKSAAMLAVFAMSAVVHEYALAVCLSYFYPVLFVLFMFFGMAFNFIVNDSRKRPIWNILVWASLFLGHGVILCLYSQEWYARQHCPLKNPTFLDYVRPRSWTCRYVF
From the text: Using a rabbit having an atherosclerotic lesion in the aorta due to rearing with a high cholesterol diet, or due to hereditary hyperlipemia, etc., an ACAT inhibitor or a medium was orally administered once a day for 3 days. About two hours after final administration, the rabbit was anesthetized and killed by exsanguination, and the aorta was removed, frozen and stored. After thawing the frozen-stored aorta, a tissue section of an atherosclerotic lesion residing site was corrected using a biopsy trephine. […]
An ACAT reaction was measured by mixing a reaction buffer (0.19 M Tris-HCl pH 7.5, 3 mM EDTA, cholesterol 0.2 mg/ml, BSA 3 mg/ml), the aforementioned “atherosclerotic lesion sample”, and a substrate solution ([3H]Oleoyl-CoA), reacting the mixture with stirring at 37° C. for 30 minutes, fractionating a lipid fraction by thin layer chromatography, and measuring radioactivity (DPM) incorporated into a cholesteryl ester fraction with a liquid scintillation counter. Radioactivity of a blank sample (STE buffer instead of the homogenate was added) was also measured, and a value obtained by subtracting radioactivity of the blank from radioactivity of each sample was adopted as the ACAT enzyme activity. […]

[4] = Anti-atherosclerotic activity test in WHHL rabbit: plasma total cholesterol exposure amount; format: in vivo; conditions: for Plasma total cholesterol exposure amount during administration period: average ± standard error, control 6194 ± 511, no significant difference (Williams' test)
Procedure: as §1, §2

| Compound | anti-atherosclerotic activity: cholesterol ester in an atherosclerotic lesion (atherosclerotic lesion [1]) | anti-atherosclerotic activity [2] | effect on blood lipid level [2] | anti-atherosclerotic activity by long-term treatment (atherosclerotic lesion [3]; 3 and 10 mg/kg, long-term treatment) | cholesterol ester content of the thoracic aorta (atherosclerotic lesion [3]; 3 and 10 mg/kg/day orally for 12 weeks (FIG. 10)) | inhibition of ACAT enzyme activity, LAL correction (ACAT; 3 mg/kg orally once a day for 3 days, vs control group) | inhibition of atherosclerotic lesion ACAT activity utilizing the correction marker (ACAT; 3 and 10 mg/kg, administration for 3 days) | Plasma total cholesterol exposure amount during administration period ([4]; 3 mg/kg/day orally for 12 weeks) | Plasma total cholesterol exposure amount during administration period ([4]; 10 mg/kg/day orally for 12 weeks) | effect on plasma total cholesterol exposure amount during the administration period (in words) ([4]; 3 and 10 mg/kg/day orally for 12 weeks) |
| --- | --- | --- | --- | --- | --- | --- | --- | --- | --- | --- |
| CC(C)c1cc(C(C)C)c(CC(=O)NS(=O)(=O)Oc2c(C(C)C)cccc2C(C)C)c(C(C)C)c1 [Avasimibe] | lowering a cholesterol ester in an atherosclerotic lesion | no effect was observed | certain effect | – | – | – | – | – | – | – |
| Monopotassium bis((2E)-3-{3-[7-chloro-3-(2-{[4-fluoro-2-(trifluoromethyl)phenyl]amino}-2-oxoethyl)-6-methyl-2-oxo-2H-chromen-4-yl]phenyl}acrylate) trihydrate [compound X] | – | – | – | clear anti-atherosclerotic activity | significantly reduced | significant inhibition | inhibited the atherosclerotic lesion ACAT activity of the WHHL rabbit dose-dependently | 5356 ± 410 mg · week/dL | 4957 ± 490 mg · week/dL | only a reduction tendency |
